Converted amounts (≈) assume the structure as drawn. Where two headings read alike, the source gives them in different places.
Key:
Type in all cases: cell-based
[1] = system: Candida albicans ATCC 62376; test: In vitro antifungal MIC, Candida albicans ATCC 62376; settings: Candida albicans ATCC 62376, 35°-37° C., 48 hours
Procedure: (§1) The in vitro antifungal activity of the compounds of the present invention against a variety of fungiwas determined as follow: Test medium was prepared by dissolving first 5 g of dextrose and then 6.7 g of Bacto Yeast Nitrogen Base® (commercially available from Difco Laboratories) in 100 mL of distilled water. The solution was filter-sterilized and diluted 1:10 with 0.01M pH 8.0 phosphate buffer solution, and the final pH of the medium adjusted to about pH 7.0 when necessary with either 0.1N hydrochloric acid solution of 0.1N sodium hydroxide solution. […] These concentrated stock solutions were diluted to a concentration of 200 μg/mL (twice the highest concentration desired for testing) with the test medium. Amphotericin B, similarly prepared, was used as a reference antifungal agent.
(§2) The test organisms were then inoculated into test tubes containing approximately 3 to 10 mL of test medium and the test tubes incubated overnight at 37° C. A sample of each overnight culture was placed in a test tube and diluted using the test medium until a reading of 95% transmittance was obtained in a conventional UV/visible spectrophotometer set to 560 nm. The adjusted cultures were then diluted 1:50 with test medium. These diluted cultures served as the inocula for the assays which follow and were used within 15 minutes of preparation.
(§3) Next, 2-fold serial dilutions of each test compound in test medium were prepared in a 96-well microtiter plate using calibrated microdiluters attached to an automatic (hand-held) diluter (available from Dynatech Laboratories).
(§4) Using sterile calibrated droppers or a multi-point dispenser, the diluted inoculum suspension was added to each of the wells in the plate. When inoculation was complete, the microtiter tray was covered with a plastic plate sealer to minimize evaporation. After the plate had been sealed, a hole was made above each well with a sterile 26-gauge syringe needle in order to allow gas exchange. If plate sealers were not available, the microtiter trays were stacked in groups of five or less with an empty tray on top. The microtiter trays were then incubated in a humidified chamber at 35°-37° C. for 48 hours or until growth was visible in the growth control wells.
(§5) The minimum inhibitory concentration (MIC) was defined as the lowest concentration of test compound yielding no growth, a slight haze or sparsely isolated colonies on the inoculum spot as compared to the growth control containing no test compound.

[2] = system: Candida kefyr ATCC 28838; test: In vitro antifungal MIC, Candida kefyr ATCC 28838; settings: Candida kefyr ATCC 28838, 35°-37° C., 48 hours
Procedure: as §1, §2, §3, §4, §5

[3] = system: Torulopsis glabrata ATCC 15545; test: In vitro antifungal MIC, Torulopsis glabrata ATCC 15545; settings: Torulopsis glabrata ATCC 15545, 35°-37° C., 48 hours
Procedure: as §1, §2, §3, §4, §5

[4] = system: Candida albicans ATCC 38247; test: In vitro antifungal MIC, Candida albicans ATCC 38247; settings: Candida albicans ATCC 38247, 35°-37° C., 48 hours
Procedure: as §1, §2, §3, §4, §5

[5] = system: Candida albicans 579A; test: In vitro antifungal MIC, Candida albicans 579A; settings: Candida albicans 579A, 35°-37° C., 48 hours
Procedure: as §1, §2, §3, §4, §5

[6] = system: Aspergillus niger ATCC 16404; test: In vitro antifungal MIC, Aspergillus niger ATCC 16404; settings: Aspergillus niger ATCC 16404, 35°-37° C., 48 hours
Procedure: as §1, §2, §3, §4, §5

[7] = system: Candida albicans ATCC 10231; test: In vitro antifungal MIC, Candida albicans ATCC 10231; settings: Candida albicans ATCC 10231, 35°-37° C., 48 hours
Procedure: as §1, §2, §3, §4, §5

[8] = system: Candida albicans CCH 442; test: In vitro antifungal MIC, Candida albicans CCH 442; settings: Candida albicans CCH 442, 35°-37° C., 48 hours
Procedure: as §1, §2, §3, §4, §5

[9] = system: Candida tropicalis NRRL-Y-112; test: In vitro antifungal MIC, Candida tropicalis NRRL-Y-112; settings: Candida tropicalis NRRL-Y-112, 35°-37° C., 48 hours
Procedure: as §1, §2, §3, §4, §5

[10] = system: Cryptococcus albidus ATCC 34140; test: In vitro antifungal MIC, Cryptococcus albidus ATCC 34140; settings: Cryptococcus albidus ATCC 34140, 35°-37° C., 48 hours
Procedure: as §1, §2, §3, §4, §5

[11] = Kluyveromyces marxianus, ATCC28838, read-out: MIC
[12] = Nakaseomyces glabratus, ATCC15545, read-out: MIC
[13] = Naganishia albida, ATCC34140, read-out: MIC

Compound | MIC [1] [µg/mL] | MIC [2] [µg/mL] | MIC [3] [µg/mL] | MIC [4] [µg/mL] | MIC [5] [µg/mL] | MIC [6] [µg/mL] | MIC [7] [µg/mL] | MIC [8] [µg/mL] | MIC [9] [µg/mL] | MIC [10] [µg/mL] | MIC ([1]; ATCC62376, read-out: MIC) [µg/mL] | MIC [2, 11] [µg/mL] | MIC [3, 12] [µg/mL] | MIC ([4]; ATCC38247, read-out: MIC) [µg/mL] | MIC ([5]; read-out: MIC) [µg/mL] | MIC ([6]; ATCC16404, read-out: MIC) [µg/mL] | MIC ([7]; ATCC10231, read-out: MIC) [µg/mL] | MIC ([8]; CCH442, read-out: MIC) [µg/mL] | MIC ([9]; NRRLY112, read-out: MIC) [µg/mL] | MIC [10, 13] [µg/mL]
2-n-octyl-5-methyl-1,3,2-benzodithiazole-1-oxide; 2-n-octyl-6-methyl-1,3,2-benzodithiazole-1-oxide [Example 40] | 1.56 | 0.78 | 3.12 | 0.2 | 0.78 | 1.56 | 1.56 | 3.12 | 3.12 | 3.12 | – | – | – | – | – | – | – | – | – | –
2-phenylmethyl-5-methyl-1,3,2-benzodithiazole-1-oxide; 2-phenylmethyl-6-methyl-1,3,2-benzodithiazole-1-oxide [Example 41] | 1.56 | 0.78 | 3.12 | 0.39 | 0.78 | 1.56 | 1.56 | 3.12 | 3.12 | 6.25 | – | – | – | – | – | – | – | – | – | –
[O-][S+]1c2ccccc2SN1CCc1ccccc1 (stereo not shown) [Example 1, 2-(2-Phenylethyl)-1,3,2-benzodithiazole-1-oxide] | – | – | – | – | – | – | – | – | – | – | 0.78 (≈ 2.83 µM) | 0.78 (≈ 2.83 µM) | 1.56 (≈ 5.66 µM) | 1.56 (≈ 5.66 µM) | 0.39 (≈ 1.42 µM) | 3.12 (≈ 11.3 µM) | 0.78 (≈ 2.83 µM) | 1.56 (≈ 5.66 µM) | 3.12 (≈ 11.3 µM) | 3.12 (≈ 11.3 µM)
CN1Sc2ccccc2[S+]1[O-] (stereo not shown) [Example 2, 2-methyl-1,3,2-benzodithiazole-1-oxide] | – | – | – | – | – | – | – | – | – | – | 0.78 (≈ 4.21 µM) | 1.56 (≈ 8.42 µM) | 0.78 (≈ 4.21 µM) | – | 1.56 (≈ 8.42 µM) | 3.12 (≈ 16.8 µM) | 1.56 (≈ 8.42 µM) | 1.56 (≈ 8.42 µM) | 1.56 (≈ 8.42 µM) | 3.12 (≈ 16.8 µM)
CCCN1Sc2ccccc2[S+]1[O-] (stereo not shown) [Example 3, 2-n-propyl-1,3,2-benzodithiazole-1-oxide] | – | – | – | – | – | – | – | – | – | – | 0.78 (≈ 3.66 µM) | 0.2 (≈ 0.938 µM) | 0.78 (≈ 3.66 µM) | 3.12 (≈ 14.6 µM) | 0.78 (≈ 3.66 µM) | 6.25 (≈ 29.3 µM) | 0.78 (≈ 3.66 µM) | 0.78 (≈ 3.66 µM) | 0.78 (≈ 3.66 µM) | 3.12 (≈ 14.6 µM)
CCCCCN1Sc2ccccc2[S+]1[O-] (stereo not shown) [Example 4, 2-n-pentyl-1,3,2-benzodithiazole-1-oxide] | – | – | – | – | – | – | – | – | – | – | 0.78 (≈ 3.23 µM) | 0.78 (≈ 3.23 µM) | 0.78 (≈ 3.23 µM) | 3.12 (≈ 12.9 µM) | 0.78 (≈ 3.23 µM) | 0.39 (≈ 1.62 µM) | 0.78 (≈ 3.23 µM) | 0.78 (≈ 3.23 µM) | 50 (≈ 207 µM) | 6.25 (≈ 25.9 µM)
CCCCCCCN1Sc2ccccc2[S+]1[O-] (stereo not shown) [Example 5, 2-n-heptyl-1,3,2-benzodithiazole-1-oxide] | – | – | – | – | – | – | – | – | – | – | 0.78 (≈ 2.89 µM) | 0.39 (≈ 1.45 µM) | 0.39 (≈ 1.45 µM) | 0.78 (≈ 2.89 µM) | 0.2 (≈ 0.742 µM) | 0.39 (≈ 1.45 µM) | 0.39 (≈ 1.45 µM) | 0.78 (≈ 2.89 µM) | 0.78 (≈ 2.89 µM) | 3.12 (≈ 11.6 µM)
CCCCCCCCN1Sc2ccccc2[S+]1[O-] (stereo not shown) [Example 6, 2-n-octyl-1,3,2-benzodithiazole-1-oxide] | – | – | – | – | – | – | – | – | – | – | 0.1 (≈ 0.353 µM) | 0.1 (≈ 0.353 µM) | 0.2 (≈ 0.706 µM) | 0.39 (≈ 1.38 µM) | 0.2 (≈ 0.706 µM) | 0.2 (≈ 0.706 µM) | 0.2 (≈ 0.706 µM) | 0.2 (≈ 0.706 µM) | 0.2 (≈ 0.706 µM) | 3.12 (≈ 11 µM)
